Measured values taken from patent publication US20230093099A1, “COMPOUNDS AND METHODS OF TREATING CANCERS” (CULLGEN (SHANGHAI), INC., priority 2019, published 2023).
pIC50: −log10 of the molar value.

System: RS4;11 cells
Assay: Cell viability assay (CellTiter-Glo) in RS4;11 cells
Type: cell-based
Details: Homo sapiens, 72 h; RS4;11 cells; cell viability, 3 days, CellTiter-Glo; read-out: IC50
Description: Specific exemplary heterobifunctional compounds were first characterized using cell viability assays. RS4;11 ALL cells were treated with bifunctional degraders for three days. The IC50 values ranged from 2 nM to over 10 uM.
MV4;11, RS4;11, Kasumi-1, HEL and other cells were treated with NVP-BSK805, TG101209 or selected degraders for 3 days at indicated concentrations following a 3-fold serial dilution.
HEL, RS4;11, MV4;11, Kasumi-1 and other cells were cultured at 37° C. with 5% CO2 in RPMI 1640 or DMEM Medium supplemented with 10% fetal bovine serum. Cells were authenticated using the short tandem repeat (STR) assays. Mycoplasma test results were negative.
Cells were seeded at a density of 5000 cells per well in 96-well assay plates and treated with test compounds following a 8-point or 12-point 3-fold serial dilution. Three days later, cell viability was determined using the CellTiter-Glo assay kit according to the manufacturer's instructions. The dose-response curves were determined and IC50 values were calculated using the GraphPad Prism software following a nonlinear regression (least squares fit) method.

Compared with `Cc1ncsc1-c1ccc(CNC(=O)[C@@H]2C[C@@H](O)CN2C(=O)[C@@H](NC(=O)CCCCCCCCNC(=O)CN2CCC(n3cc(-c4cnc5cccc(-c6cc(F)c(CN7CCOCC7)c(F)c6)c5n4)cn3)CC2)C(C)(C)C)cc1` [JA-161, (2S,4R)-1-((S)-2-(9-(2-(4-(4-(8-(3,5-Difluoro-4-(morpholinomethyl)phenyl)quinoxalin-2-yl)-1H-pyrazol-1-yl)piperidin-1-yl)acetamido)nonanamido)-3,3-dimethylbutanoyl)-4-hydroxy-N-(4-(4-methylthiazol-5-yl)benzyl)pyrrolidine-2-carboxamide], `Cc1ncsc1-c1ccc(CNC(=O)[C@@H]2C[C@@H](O)CN2C(=O)[C@@H](NC(=O)CCOCCOCCOCCOCCNC(=O)CN2CCC(n3cc(-c4cnc5cccc(-c6cc(F)c(CN7CCOCC7)c(F)c6)c5n4)cn3)CC2)C(C)(C)C)cc1` [JA-167, (2S,4R)-1-((S)-20-(tert-Butyl)-1-(4-(4-(8-(3,5-difluoro-4-(morpholinomethyl)phenyl)quinoxalin-2-yl)-1H-pyrazol-1-yl)piperidin-1-yl)-2,18-dioxo-6,9,12,15-tetraoxa-3,19-diazahenicosan-21-oyl)-4-hydroxy-N-(4-(4-methylthiazol-5-yl)benzyl)pyrrolidine-2-carboxamide] is lower in pIC50: 5.63 for the first, < 5.00 for the second. The first is the more potent here.

Compared with `CS(=O)(=O)c1ccc(-c2cccc3nc(Nc4ccc(N5CCN(C(=O)CCOCCNc6cccc7c6C(=O)N(C6CCC(=O)NC6=O)C7=O)CC5)cc4)nn23)cc1` (centres unmarked) [JA-079, 2-(2,6-Dioxo-piperidin-3-yl)-4-{2-[3-(4-{4-[5-(4-methanesulfonyl-phenyl)-[1,2,4]triazolo[1,5-a]pyridin-2-ylamino]-phenyl}-piperazin-1-yl)-3-oxo-propoxy]-ethylamino}-isoindole-1,3-dione], `CS(=O)(=O)c1ccc(-c2cccc3nc(Nc4ccc(N5CCN(CC(=O)NCCOCCNc6cccc7c6C(=O)N(C6CCC(=O)NC6=O)C7=O)CC5)cc4)nn23)cc1` (centres unmarked) [JA-110, N-(2-(2-((2-(2,6-Dioxopiperidin-3-yl)-1,3-dioxoisoindolin-4-yl)amino)ethoxy)ethyl)-2-(4-(4-((5-(4-(methylsulfonyl)phenyl)-[1,2,4]triazolo[1,5-a]pyridin-2-yl)amino)phenyl)piperazin-1-yl)acetamide] is lower in pIC50: 6.32 for the first, < 5.00 for the second.

Going from `CS(=O)(=O)c1ccc(-c2cccc3nc(Nc4ccc(N5CCN(C(=O)CCCCC#Cc6ccc7c(c6)C(=O)N(C6CCC(=O)NC6=O)C7=O)CC5)cc4)nn23)cc1` (centres unmarked) [JA-248, 2-(2,6-Dioxopiperidin-3-yl)-5-(7-(4-(4-((5-(4-(methylsulfonyl)phenyl)-[1,2,4]triazolo[1,5-a]pyridin-2-yl)amino)phenyl)piperazin-1-yl)-7-oxohept-1-yn-1-yl)isoindoline-1,3-dione] to `CS(=O)(=O)c1ccc(-c2cccc3nc(Nc4ccc(N5CCN(C(=O)CCCCCNc6ccc7c(c6)C(=O)N(C6CCC(=O)NC6=O)C7)CC5)cc4)nn23)cc1` (centres unmarked) [JA-276, 3-(6-((6-(4-(4-((5-(4-(Methylsulfonyl)phenyl)-[1,2,4]triazolo[1,5-a]pyridin-2-yl)amino)phenyl)piperazin-1-yl)-6-oxohexyl)amino)-1-oxoisoindolin-2-yl)piperidine-2,6-dione], the pIC50 falls from 6.61 to < 5.00.

Compared with `CS(=O)(=O)c1ccc(-c2cccc3nc(Nc4ccc(N5CCN(CC(=O)NCCOCCOCCOCCNc6ccc7c(c6)C(=O)N(C6CCC(=O)NC6=O)C7=O)CC5)cc4)nn23)cc1` (centres unmarked) [JA-209, N-(2-(2-(2-(2-((2-(2,6-Dioxopiperidin-3-yl)-1,3-dioxoisoindolin-5-yl)amino)ethoxy)ethoxy)ethoxy)ethyl)-2-(4-(4-((5-(4-(methylsulfonyl)phenyl)-[1,2,4]triazolo[1,5-a]pyridin-2-yl)amino)phenyl)piperazin-1-yl)acetamide], `Cc1cnc(Nc2ccc(N3CCN(C(=O)CCOCCOCCOCCOCCNc4ccc5c(c4)C(=O)N(C4CCC(=O)NC4=O)C5=O)CC3)cc2)nc1Nc1cccc(S(=O)(=O)NC(C)(C)C)c1` (centres unmarked) [JA-235, N-(tert-butyl)-3-((2-((4-(4-(1-((2-(2,6-dioxopiperidin-3-yl)-1,3-dioxoisoindolin-5-yl)amino)-3,6,9,12-tetraoxapentadecan-15-oyl)piperazin-1-yl)phenyl)amino)-5-methylpyrimidin-4-yl)amino)benzenesulfonamide] is higher in pIC50: < 5.00 for the first, 6.07 for the second. The second is the more potent here.

First: Cc1cnc(Nc2ccc(N3CCN(C(=O)CCOCCOCCOCCNc4cccc5c4C(=O)N(C4CCC(=O)NC4=O)C5=O)CC3)cc2)nc1Nc1cccc(S(=O)(=O)NC(C)(C)C)c1 (centres unmarked) [JA-019, N-(tert-Butyl)-3-((2-((4-(4-(3-(2-(2-(2-((2-(2,6-dioxopiperidin-3-yl)-1,3-dioxoisoindolin-4-yl)amino)ethoxy)ethoxy)ethoxy)propanoyl)piperazin-1-yl)phenyl)amino)-5-methylpyrimidin-4-yl)amino)benzenesulfonamide]
Second: Cc1cnc(Nc2ccc(N3CCN(C(=O)CCCCCCCCCC(=O)N[C@H](C(=O)N4C[C@H](O)C[C@H]4C(=O)NCc4ccc(-c5scnc5C)cc4)C(C)(C)C)CC3)cc2)nc1Nc1cccc(S(=O)(=O)NC(C)(C)C)c1 [JA-029, (2S,4R)-1-((S)-2-(11-(4-(4-((4-((3-(N-(tert-Butyl)sulfamoyl)phenyl)amino)-5-methylpyrimidin-2-yl)amino)phenyl)piperazin-1-yl)-11-oxoundecanamido)-3,3-dimethylbutanoyl)-4-hydroxy-N-(4-(4-methylthiazol-5-yl)benzyl)pyrrolidine-2-carboxamide]
The pIC50 of the first is higher: 6.45 for the first, < 5.00 for the second. The first is the more potent here.

Going from `O=C1CCC(N2C(=O)c3ccc(C#CCCCCC(=O)N4CCC(n5cc(-c6cnc7cccc(-c8cc(F)c(CN9CCOCC9)c(F)c8)c7n6)cn5)CC4)cc3C2=O)C(=O)N1` (centres unmarked) [JA-258, 5-(7-(4-(4-(8-(3,5-Difluoro-4-(morpholinomethyl)phenyl)quinoxalin-2-yl)-1H-pyrazol-1-yl)piperidin-1-yl)-7-oxohept-1-yn-1-yl)-2-(2,6-dioxopiperidin-3-yl)isoindoline-1,3-dione] to `O=C1CCC(N2C(=O)c3ccc(NCCOCCC(=O)N4CCC(n5cc(-c6cnc7cccc(-c8cc(F)c(CN9CCOCC9)c(F)c8)c7n6)cn5)CC4)cc3C2=O)C(=O)N1` (centres unmarked) [JA-181, 5-((2-(3-(4-(4-(8-(3,5-Difluoro-4-(morpholinomethyl)phenyl)quinoxalin-2-yl)-1H-pyrazol-1-yl)piperidin-1-yl)-3-oxopropoxy)ethyl)amino)-2-(2,6-dioxopiperidin-3-yl)isoindoline-1,3-dione], the pIC50 falls from 6.19 to 5.77 (0.42 log units). The first is the more potent here.

`Cc1ncsc1-c1ccc(CNC(=O)[C@@H]2C[C@@H](O)CN2C(=O)[C@@H](NC(=O)CCCCCC(=O)N2CCN(c3ccc(Nc4nc5cccc(-c6ccc(S(C)(=O)=O)cc6)n5n4)cc3)CC2)C(C)(C)C)cc1` [JA-076, (2S,4R)-1-((S)-3,3-Dimethyl-2-(7-(4-(4-((5-(4-(methylsulfonyl)phenyl)-[1,2,4]triazolo[1,5-a]pyridin-2-yl)amino)phenyl)piperazin-1-yl)-7-oxoheptanamido)butanoyl)-4-hydroxy-N-(4-(4-methylthiazol-5-yl)benzyl)pyrrolidine-2-carboxamide] and `Cc1ncsc1-c1ccc(CNC(=O)[C@@H]2C[C@@H](O)CN2C(=O)[C@@H](NC(=O)CCOCCOCCOCCNC(=O)CN2CCN(c3ccc(Nc4nc5cccc(-c6ccc(S(C)(=O)=O)cc6)n5n4)cc3)CC2)C(C)(C)C)cc1` [JA-137, (2S,4R)-1-((S)-17-(tert-Butyl)-1-(4-(4-((5-(4-(methylsulfonyl)phenyl)-[1,2,4]triazolo[1,5-a]pyridin-2-yl)amino)phenyl)piperazin-1-yl)-2,15-dioxo-6,9,12-trioxa-3,16-diazaoctadecan-18-oyl)-4-hydroxy-N-(4-(4-methylthiazol-5-yl)benzyl)pyrrolidine-2-carboxamide] cannot be ordered by pIC50: < 5.00 for the first, < 5.00 for the second.

First: O=C(CN1CCC(n2cc(-c3cnc4cccc(-c5cc(F)c(CN6CCOCC6)c(F)c5)c4n3)cn2)CC1)NCCOCCOCCOCCOCCOCCNc1ccc2c(c1)C(=O)N(C1CCC(=O)NC1=O)C2=O (centres unmarked) [JA-173, 2-(4-(4-(8-(3,5-Difluoro-4-(morpholinomethyl)phenyl)quinoxalin-2-yl)-1H-pyrazol-1-yl)piperidin-1-yl)-N-(17-((2-(2,6-dioxopiperidin-3-yl)-1,3-dioxoisoindolin-5-yl)amino)-3,6,9,12,15-pentaoxaheptadecyl)acetamide]
Second: O=C1CCC(N2C(=O)c3ccc(NCCCCCCN4CCC(n5cc(-c6cnc7cccc(-c8cc(F)c(CN9CCOCC9)c(F)c8)c7n6)cn5)CC4)cc3C2=O)C(=O)N1 (centres unmarked) [JA-266, 5-((6-(4-(4-(8-(3,5-Difluoro-4-(morpholinomethyl)phenyl)quinoxalin-2-yl)-1H-pyrazol-1-yl)piperidin-1-yl)hexyl)amino)-2-(2,6-dioxopiperidin-3-yl)isoindoline-1,3-dione]
The pIC50 of the first is lower: < 5.00 for the first, 6.52 for the second.

`O=C(CN1CCC(n2cc(-c3cnc4cccc(-c5cc(F)c(CN6CCOCC6)c(F)c5)c4n3)cn2)CC1)NCCNc1cccc2c1C(=O)N(C1CCC(=O)NC1=O)C2=O` (centres unmarked) [JA-144, 2-[4-[4-[8-[3,5-Difluoro-4-(morpholinomethyl)phenyl]quinoxalin-2-yl]pyrazol-1-yl]-1-piperidyl]-N-[2-[[2-(2,6-dioxo-3-piperidyl)-1,3-dioxo-isoindolin-4-yl]amino]ethyl]acetamide] gave a pIC50 of 5.62.
